Test results from patent US11912693B2, “Compounds for modulating S1P1 activity and methods of using the same” (TREVENA, INC., priority 2017, dated 2024).

Legend:
[1] = biological target: T1, human sphingosine-1-phosphate receptor 1 (S1P1) (Homo sapiens (Human), UniProt P21453); assay: β-Arrestin2 recruitment assay (PathHunter), S1P1 CHO-K1 cells; type: cell-based; conditions: for Emax: CHO-K1, read-out: hS1P1 B-arrestin2 SPAN; for hS1P1 B-arrestin2 pEC50: β-arrestin2 recruitment, S1P1 CHO-K1 cells
Outline: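 Enzyme-fragment complementation read-out: agonist-driven β-arrestin2 binding to ProLink-tagged human S1P1 in stable CHO-K1 cells restores β-galactosidase, measured 1 h at room temperature after a 60 min 37° C. compound incubation. Potency as pEC50, efficacy relative to fingolimod (SPAN).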
Target sequence in this assay (P21453 whole entry, looked up, the tested form may be a part): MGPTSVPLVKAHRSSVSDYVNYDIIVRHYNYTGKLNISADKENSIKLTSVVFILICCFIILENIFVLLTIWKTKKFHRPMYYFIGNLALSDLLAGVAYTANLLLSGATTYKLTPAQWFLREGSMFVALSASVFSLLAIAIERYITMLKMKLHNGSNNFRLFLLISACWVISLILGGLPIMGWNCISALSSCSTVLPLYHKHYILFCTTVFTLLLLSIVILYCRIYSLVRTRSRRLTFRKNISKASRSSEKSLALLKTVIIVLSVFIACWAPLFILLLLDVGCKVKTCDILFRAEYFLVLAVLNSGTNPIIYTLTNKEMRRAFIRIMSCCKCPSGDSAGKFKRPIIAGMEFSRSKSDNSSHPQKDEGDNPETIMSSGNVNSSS
Target sequence in this assay (P32121 whole entry partner, looked up, the tested form may be a part): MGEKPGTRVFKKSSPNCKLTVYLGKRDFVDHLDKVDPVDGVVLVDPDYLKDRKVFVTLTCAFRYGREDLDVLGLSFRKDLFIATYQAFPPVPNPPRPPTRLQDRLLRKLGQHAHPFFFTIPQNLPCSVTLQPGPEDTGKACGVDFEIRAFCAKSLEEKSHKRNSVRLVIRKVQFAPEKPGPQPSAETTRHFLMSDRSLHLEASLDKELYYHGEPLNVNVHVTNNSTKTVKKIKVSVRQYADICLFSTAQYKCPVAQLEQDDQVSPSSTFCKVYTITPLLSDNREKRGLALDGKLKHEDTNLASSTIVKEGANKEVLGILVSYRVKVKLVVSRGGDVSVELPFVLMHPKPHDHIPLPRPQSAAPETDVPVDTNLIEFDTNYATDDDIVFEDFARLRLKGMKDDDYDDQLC

[2] = biological target: T1, human sphingosine-1-phosphate receptor 1 (S1P1); assay: Inhibition of cAMP production (HTRF cAMP HiRange), S1P1 CHO-K1 cells; type: cell-based; conditions: for Emax: CHO-K1, read-out: hS1P1 cAMP SPAN; for hS1P1 cAMP pEC50: inhibition of cAMP production, S1P1 CHO-K1 cells
Outline: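 CHO-K1 cells stably co-expressing human S1P1 (C-terminal Prolink tag) and EA-β-arrestin2 were grown in AssayComplete Media 6 at 37° C. and 5% CO2, plated, and incubated overnight. Agonist-driven inhibition of intracellular cAMP was read by TR-FRET with the HTRF cAMP HiRange kit on a PheraStar reader. Potency is pEC50, and efficacy (SPAN) is normalized to fingolimod.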
Target sequence in this assay (P21453 whole entry, looked up, the tested form may be a part): as the sequence (P21453 whole entry, looked up, the tested form may be a part) above

[3] = efficacy (SPAN) normalized to fingolimod

Row | Structure (SMILES) | Emax [1, 3] | hS1P1 B-arrestin2 pEC50 [1] | Emax [2, 3] | hS1P1 cAMP pEC50 [2] | hS1P1 B-arrestin2 SPAN [1, 3] | hS1P1 cAMP SPAN [2, 3]
1 | CCC1(CC)CC(=O)c2cc(-c3nc(-c4ccnc(F)c4)no3)ccc2O1 [Compound 146, 2,2-diethyl-6-(3-(2-fluoropyridin-4-yl)-1,2,4-oxadiazol-5-yl)chroman-4-one] | < 75% | >5 | > 75% | >6.5 |  | 
2 | O=C1CC2(CCOCC2)Oc2ccc(-c3nc(-c4ccncc4)no3)cc21 [Compound 148, 6-[3-(pyridin-4-yl)-1,2,4-oxadiazol-5-yl]-3,4-dihydrospiro[1-benzopyran-2,4′-oxane]-4-one] |  | <5 |  | <6.5 |  | 
3 | C=CCNc1ccc(-c2nc(-c3ccc4c(c3)nnn4C(C)C)no2)cc1C#N [Compound 150, 2-(allylamino)-5-(3-(1-isopropyl-1H-benzo[d][1,2,3]triazol-5-yl)-1,2,4-oxadiazol-5-yl)benzonitrile] | > 75% | >5 | > 75% | >6.5 |  | 
4 | CCC1(CC)CC(=O)c2cc(-c3nc(-c4ccc(C(=O)N(C)C)cc4)no3)ccc2O1 [Compound 151, 4-(5-(2,2-diethyl-4-oxochroman-6-yl)-1,2,4-oxadiazol-3-yl)-N,N-dimethylbenzamide] |  | <5 |  | <6.5 | >75 | >75
5 | CCC1(CC)CC(=O)c2cc(-c3nc(-c4ccc(NC)cc4)no3)ccc2O1 [Compound 153, 2,2-diethyl-6-(3-(4-(methylamino)phenyl)-1,2,4-oxadiazol-5-yl)chroman-4-one] | < 75% | >5 | > 75% | <6.5 |  | 
6 | Cc1ccccc1C(C)c1noc(-c2ccc3c(c2)nnn3CC(C)C)n1 (stereo not drawn) [Compound 154, 5-{3-[1-(2-methylphenyl)ethyl]-1,2,4-oxadiazol-5-yl}-1-(2-methylpropyl)-1H-1,2,3-benzotriazole] |  | <5 |  | <6.5 |  | 
7 | COc1cc(-c2noc(-c3ccc4c(c3)nnn4C3CC3)n2)ccn1 [Compound 155, 1-cyclopropyl-5-[3-(2-methoxypyridin-4-yl)-1,2,4-oxadiazol-5-yl]-1H-1,2,3-benzotriazole] |  | <5 |  | <6.5 |  | 
8 | Cc1cc(-c2nc(-c3ccc4c(c3)nnn4C(C)C)no2)cc(C)n1 [Compound 156, 5-(2,6-dimethylpyridin-4-yl)-3-(1-isopropyl-1H-benzo[d][1,2,3]triazol-5-yl)-1,2,4-oxadiazole] | > 75% | >5 | > 75% | >6.5 |  | 
9 | Cc1cnc(-c2noc(-c3ccc4c(c3)nnn4C(C)C)n2)cn1 [Compound 157, 5-[3-(5-methylpyrazin-2-yl)-1,2,4-oxadiazol-5-yl]-1-(propan-2-yl)-1H-1,2,3-benzotriazole] |  | <5 |  | <6.5 |  | 
10 | Cc1cc(C)cc(-c2noc(-c3ccc4c(c3)nnn4C3CCCCC3)n2)c1 [Compound 158, 1-cyclohexyl-5-[3-(3,5-dimethylphenyl)-1,2,4-oxadiazol-5-yl]-1H-1,2,3-benzotriazole] | < 75% | <5 | < 75% | <6.5 |  | 
11 | Cc1cncc(-c2nc(-c3ccc4c(c3)nnn4C(C)C)no2)c1 [Compound 159, 3-(1-isopropyl-1H-benzo[d][1,2,3]triazol-5-yl)-5-(5-methylpyridin-3-yl)-1,2,4-oxadiazole] |  | <5 |  | <6.5 |  | 
12 | CCCn1nnc2cc(-c3nc(-c4ccccc4)no3)ccc21 [Compound 160, 5-(3-phenyl-1,2,4-oxadiazol-5-yl)-1-propyl-1H-1,2,3-benzotriazole] |  | <5 |  | <6.5 |  | 
13 | COC(=O)CCn1nnc2cc(-c3noc(-c4ccccc4Br)n3)ccc21 [Compound 161, methyl 3-(5-(5-(2-bromophenyl)-1,2,4-oxadiazol-3-yl)-1H-benzo[d][1,2,3]triazol-1-yl)propanoate] |  | <5 |  | <6.5 |  | 
14 | Cc1ccccc1-c1nc(-c2ccc3c(c2)nnn3C2CCCC2)no1 [Compound 162, 3-(1-cyclopentyl-1H-benzo[d][1,2,3]triazol-5-yl)-5-(o-tolyl)-1,2,4-oxadiazole] |  | >5 |  | <6.5 |  | 
15 | CC(C)n1nnc2cc(-c3nc(-c4ccccc4Cl)co3)ccc21 [Compound 163] | > 75% |  | > 75% |  |  | 
16 | Cc1ccc(-c2noc(-c3ccc4c(c3)nnn4C3CCCC3)n2)cc1 [Compound 164, 1-cyclopentyl-5-[3-(4-methylphenyl)-1,2,4-oxadiazol-5-yl]-1H-1,2,3-benzotriazole] |  | <5 |  | <6.5 |  | 
17 | CC(C)n1nnc2cc(-c3nc(-c4cccnc4)no3)ccc21 [Compound 165, 1-(propan-2-yl)-5-[3-(pyridin-3-yl)-1,2,4-oxadiazol-5-yl]-1H-1,2,3-benzotriazole] |  | <5 |  | <6.5 |  | 
18 | Cc1ccc(-c2nc(-c3ccc4c(c3)nnn4C(C)C)no2)c(C)c1 [Compound 166, 5-(2,4-dimethylphenyl)-3-(1-isopropyl-1H-benzo[d][1,2,3]triazol-5-yl)-1,2,4-oxadiazole] |  | <5 |  | <6.5 |  | 
19 | CC(C)c1cc(-c2nc(-c3ccc4c(c3)nnn4C(C)C)no2)ccn1 [Compound 167, 3-(1-isopropyl-1H-benzo[d][1,2,3]triazol-5-yl)-5-(2-isopropylpyridin-4-yl)-1,2,4-oxadiazole] |  | <5 |  | <6.5 |  | 
20 | CC(C)n1nnc2cc(-c3nc(-c4ccc5ccccc5n4)no3)ccc21 [Compound 168, 2-{5-[1-(propan-2-yl)-1H-1,2,3-benzotriazol-5-yl]-1,2,4-oxadiazol-3-yl}quinoline] | < 75% | <5 | < 75% | <6.5 |  | 
21 | CC(C)n1nnc2cc(-c3nc(-c4ccc(Cl)s4)no3)ccc21 [Compound 170, 5-[3-(5-chlorothiophen-2-yl)-1,2,4-oxadiazol-5-yl]-1-(propan-2-yl)-1H-1,2,3-benzotriazole] | < 75% | <5 | < 75% | <6.5 |  | 
22 | Cc1ccccc1-c1noc(-c2ccc3c(c2)nnn3C2CC2)n1 [Compound 171, 1-cyclopropyl-5-[3-(2-methylphenyl)-1,2,4-oxadiazol-5-yl]-1H-1,2,3-benzotriazole] |  | >5 |  | >6.5 |  | 
23 | Cc1ccccc1C(C)c1noc(-c2ccc3c(c2)nnn3C(C)C)n1 (stereo not drawn) [Compound 172, 5-{3-[1-(2-methylphenyl)ethyl]-1,2,4-oxadiazol-5-yl}-1-(propan-2-yl)-1H-1,2,3-benzotriazole] | < 75% | <5 | < 75% | <6.5 |  | 
24 | COc1ccccc1-c1noc(-c2ccc3c(c2)nnn3C2CC2)n1 [Compound 173, 1-cyclopropyl-5-[3-(2-methoxyphenyl)-1,2,4-oxadiazol-5-yl]-1H-1,2,3-benzotriazole] | > 75% | >5 | > 75% | >6.5 |  | 
25 | c1cc(-c2noc(-c3ccc4c(c3)nnn4C3CCCC3)n2)ccn1 [Compound 174, 1-cyclopentyl-5-[3-(pyridin-4-yl)-1,2,4-oxadiazol-5-yl]-1H-1,2,3-benzotriazole] | > 75% | <5 | > 75% | >6.5 |  | 
26 | Cc1ccccc1-c1noc(-c2ccc3c(c2)nnn3C2CCCC2)n1 [Compound 175, 1-cyclopentyl-5-[3-(2-methylphenyl)-1,2,4-oxadiazol-5-yl]-1H-1,2,3-benzotriazole] | > 75% | >5 | > 75% | >6.5 |  | 
27 | O=C1CC2(CCCC2)Oc2ccc(-c3nc(-c4ccncc4)no3)cc21 [Compound 176, 6-[3-(pyridin-4-yl)-1,2,4-oxadiazol-5-yl]-3,4-dihydrospiro[1-benzopyran-2,1′-cyclopentane]-4-one] | < 75% | <5 | > 75% | <6.5 |  | 
28 | CCC1(CC)CC(=O)c2cc(-c3nnc(-c4ccccc4OC)s3)ccc2O1 [Compound 178, 2,2-diethyl-6-(5-(2-methoxyphenyl)-1,3,4-thiadiazol-2-yl)chroman-4-one] | < 75% | >5 | > 75% | <6.5 |  | 
29 | CC(C)n1nnc2cc(-c3nc(-c4ccccc4O)no3)ccc21 [Compound 180, 2-(5-(1-isopropyl-1H-benzo[d][1,2,3]triazol-5-yl)-1,2,4-oxadiazol-3-yl)phenol] |  | <5 |  | <6.5 |  | 
30 | CC(C)n1nnc2cc(C(=O)Nc3noc4ccccc34)ccc21 [Compound 181, N-(benzo[d]isoxazol-3-yl)-1-isopropyl-1H-benzo[d][1,2,3]triazole-5-carboxamide] | > 75% | <5 | > 75% | <6.5 |  | 
